From BigSolDB 2.1

CC(=CC(C)=Nc1c(C)cc(C)cc1C)Nc1c(C)cc(C)cc1C
solubility (mole fraction)
Settings | 273.15 K | 278.15 K | 283.15 K | 288.15 K | 293.15 K | 298.15 K | 303.15 K
in THF | 0.215 | 0.233 | 0.253 | 0.273 | 0.295 | 0.317 | 0.346
in ethanol | 0.00285 | 0.00317 | 0.00373 | 0.00471 | 0.00561 | 0.00678 | 0.00849
in methanol | 0.0008 | 0.00094 | 0.00117 | 0.00137 | 0.00169 | 0.00205 | 0.00275
in n-hexane | 0.0989 | 0.106 | 0.124 | 0.148 | 0.181 | 0.216 | 0.255
in toluene | 0.189 | 0.211 | 0.236 | 0.264 | 0.295 | 0.33 | 0.372
